Results on two molecules are retold here after patent US6875608B1, “Propagation and/or derivation of embryonic stem cells” (University of Edinburgh, priority 1998, dated 2005).

In assay [1] the test system is D027 ES cells.
Method: Data were collected as means±s.e.m for duplicate determinations of triplicate samples normalized relative to the response to LIF. […] Data was collected as means±s.e.m for duplicate determinations of triplicate samples normalized relative to the maximum response of cells to treatment with LIF(111 U/ml) plus vehicle.
Expression of β-galactosidase from the Oct-4 locus in D027 cells was quantitated in an ONPG assay. Cells were plated at 5000 per well in a 24-well dishes and cultured for 6 days in the presence or absence of cytokine. When cells were treated with PD098059, they were plated at 2500 per well and cultured overnight in normal growth medium prior to addition of the inhibitor. On day 6, cells were washed once with PBS and lysed in 0.4 ml of 0.25 M Tris pH 7.5, 0.5 mM DTT, 0.5 % NP40. Lysate (40 μl) was mixed with 100 μl of ONPG buffer (60 mM Na2HPO4, 40 mM NaH2PO4, 10 mM KCl, 1 mM MgCl2, 50 mM 2-mercaptoethanol, 1.2 mM ONPG) in a microtitre plate, incubated at 37° C. for 2-4 hours and the absorbance was read at 420 nm. All assays were performed in triplicate.
D027 cells have a LacZ gene inserted within the stem cell specific gene, Oct-4. As a consequence, expression of this integrated reporter gene is restricted to undifferentiated ES cells and the resulting β-galactosidase activity provides a measure of stem cell self-renewal.
To test this hypothesis, D027 cells were cultured in the presence of the specific MEK inhibitor, PD098059. A sub-saturating concentration of LIF (5 U/ml) was used in these experiments to increase these sensitivity of the assay to changes in self-renewal signaling.
Self-renewal ES cells was assayed flowing treatment with 0.1-100 U/ml LIF either in the presence of 25 μM PD098059 or vehicle (02% DMSO).
For assay [2], the system named is IOUD2 ES cells. The experiment in a line: Aggregate (embryoid body) culture, staining for Oct4 β-galactosidase. Type of assay: cell-based, mouse. The text has this: Aggregation induces ES cells to differentiate and form structures known as embryoid bodies that contain multiple differentiated cell types. Undifferentiated cells are largely or wholly eliminated during embryoid formation due to induced differentiation and/or apoptosis.
IOUD2 ES cells, which carry a targeted integration of βgeo into the Oct4 locus were used to enable visualisation of undifferentiated cells by histochemical staining for β-galactosidase. Aggregates were formed in hanging drops by seeding 100 cells/20 μl drop in the presence of 0, 25, 50, 75 or 100 μm PD089059. Aggregates were maintained for 6 days, then transferred to gelatin-coated dishes and allowed to attach overnight. Cultures were then fixed and stained for β-galactosidase activity. In the absence of the Mek inhibitor, the embryoid bodies were well differentiated and very few Oct4 β-galactosidase expressing cells were present in the outgrowths. […] At PD089059 concentrations of 75-100 μm, the great majority of cells were undifferentiated.

Assay [3] relates to ZIN40 ES cells. The experiment in a line: Chimaera analysis of ES cell pluripotency. It is filed as in vivo. The conditions noted are these: 48 hours LIF plus 25 μM PD098059, 24 hours LIF only, injected into mouse blastocysts, day 9.5. The protocol:
ZIN40 ES cells were treated wit 25 μM PD098059 plus 5 U/ml LIF for 48 hours, re-fed with medium containing LIF for a further 24 hours and than microinjected into C57BL/6 blastcysts. Embryos were collected at day 9.5 of pregnancy and stained for β-galactosidase activity.
ZIN40 ES cells were injected into C57BL/6 blastocysts and transferred into pseudopregnant mice. Mice were sacrificed at day 9.5 of pregnancy and the embryos were stained with X-gal.
We therefore determined whether ES cells propagated in the absence of gp130-dependent ERK. signaling have the capacity to incorporate into the developing embryo and differentiate appropriately. Cells were cultured at low density (1000 cell/cm^2) for 48 hours in the presence of LIF plus 25 μM PD098059, or in the absence of LIF. They were then re-fed with medium containing LIF but lacking the inhibitor for a further 24 hours before microinjection into mouse blastocysts. ZIN40 cells were used in this experiment, since they carry a nuclear localised β-galactosidase marker that is widely expressed in differentiated cell types. […] However, cells cultured in the absence of LIF for 48 hours were incapable of colonizing the embryo.

The subject of assay [4] is ERK1 and ERK2. The experiment in a line: PD098059 dependent inhibition of ERK activation (immunoblot with phosphospecific anti-ERK antibodies). It is filed as cell-based, mouse. The note with it: GRgp(278) cells, 48 hours inhibitor plus LIF, then G-CSF 30 ng/ml 10 minutes. The method, then: For analysis of STAT3 and ERK phosphorylation, 1×10^6 ES cells were plated per well of 6-well dishes. Cells were serum starved and treated with cytokines as described above and then lysed in 100 μl SDS sample buffer. Ten microlitre aliquots were fractionated on a 10% SDS polyacrylamide gel, electroblotted onto nitrocellulose and probed with anti-ERK and anti-STAT3 antibodies according to the directions provided by supplier (New England Biolabs).
The continued proliferation of undifferentiated ES cells at inhibitory concentrations of PD098059 confirms that gp130-dependent activation of ERK1 and ERK2 is not required for the propagation of ES cells.

For assay [5], the target named is T1, GRgp(278) chimeric receptor (UniProt Q00560+Q99062).
T1 construct: fusing the extracellular domain of the human G-CSFR to an EcoRI fragment of mouse gp130; an EcoRI fragment of mouse gp130 containing the transmembrane domain and the entire cytoplasmic region; expressed in transfected cells
T1 sequence (Q00560 640-917 limits assumed, change not shown, one chain of several): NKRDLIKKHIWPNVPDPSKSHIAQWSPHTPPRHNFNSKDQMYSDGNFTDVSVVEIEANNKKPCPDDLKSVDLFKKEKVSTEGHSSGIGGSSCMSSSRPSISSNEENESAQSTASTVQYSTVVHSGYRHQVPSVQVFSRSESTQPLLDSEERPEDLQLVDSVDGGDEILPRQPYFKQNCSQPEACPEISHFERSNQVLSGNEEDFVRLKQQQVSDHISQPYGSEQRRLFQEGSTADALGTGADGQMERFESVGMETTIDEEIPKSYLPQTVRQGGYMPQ
The assay is described as follows: Self-renewal response of GRgp130 transfectants to G-CSF. Type of assay: cell-based. The conditions noted are these: GRgp(278) transfectants, 6 days, 300 fg-30 ng/ml G-CSF. The protocol:
(§1) Photomicrographs were taken of X-gal stained, representive colonies formed by GRgp(278) and GRgp(Y118F) transfectants after 6 days culture with 300 fg, 30 pg and 30 ng/ml of G-CSF. Photomicrographs were also taken of representative colonies formed by GRgp(278) and GRgp(Y118F) transfectants after 6 days culture with no cytokine, IL-6 (100 ng/ml+sIL-6R), G-CSF(30 ng/ml) or, IL-6(100 ng/ml+sIL-6R) and G-CSF(30 ng/ml).
(§2) All assays were performed in triplicate.

In assay [6] the target is T2, GRgp(Y118F) chimeric receptor (UniProt Q00560+Q99062, Y757F).
T2 construct: fusing the extracellular domain of the human G-CSFR to an EcoRI fragment of mouse gp130; an EcoRI fragment of mouse gp130 containing the transmembrane domain and the entire cytoplasmic region; expressed in transfected cells
T2 sequence (Q99062+Q00560 with tags, fused parts or gaps Q00560:Y757F): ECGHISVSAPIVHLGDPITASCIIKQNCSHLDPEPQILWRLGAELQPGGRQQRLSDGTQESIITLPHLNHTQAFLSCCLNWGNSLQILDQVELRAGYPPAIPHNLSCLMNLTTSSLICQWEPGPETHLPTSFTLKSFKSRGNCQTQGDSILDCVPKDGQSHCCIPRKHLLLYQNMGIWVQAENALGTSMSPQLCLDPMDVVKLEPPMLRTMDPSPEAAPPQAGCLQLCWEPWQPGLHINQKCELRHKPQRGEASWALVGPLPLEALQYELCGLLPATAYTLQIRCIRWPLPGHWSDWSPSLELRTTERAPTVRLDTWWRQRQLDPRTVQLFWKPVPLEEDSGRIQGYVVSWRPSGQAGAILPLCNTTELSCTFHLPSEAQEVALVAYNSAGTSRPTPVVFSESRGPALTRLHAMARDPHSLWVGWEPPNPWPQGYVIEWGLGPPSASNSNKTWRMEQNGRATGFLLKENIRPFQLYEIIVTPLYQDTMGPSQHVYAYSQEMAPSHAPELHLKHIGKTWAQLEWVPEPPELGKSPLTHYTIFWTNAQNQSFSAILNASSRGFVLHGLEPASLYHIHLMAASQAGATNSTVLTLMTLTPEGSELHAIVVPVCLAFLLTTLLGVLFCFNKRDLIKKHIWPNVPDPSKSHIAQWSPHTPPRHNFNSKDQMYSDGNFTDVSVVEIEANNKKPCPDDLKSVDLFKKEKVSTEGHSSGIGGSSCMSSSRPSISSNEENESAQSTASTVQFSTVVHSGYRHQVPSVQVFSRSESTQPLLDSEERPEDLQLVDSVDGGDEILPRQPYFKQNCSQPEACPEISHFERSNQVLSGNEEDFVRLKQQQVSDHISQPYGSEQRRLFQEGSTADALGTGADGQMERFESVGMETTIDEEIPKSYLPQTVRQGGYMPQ
The assay is described as above. Type of assay: cell-based. The conditions noted are these: GRgp(Y118F) ES cells, 6 days, 300 fg-30 ng/ml G-CSF. The method, then: as §1, §2

For the molecule `COc1cccc(-c2cc(=O)c3ccccc3o2)c1N` [PD098059], the “effect on dose response of ES cells to LIF (β-galactosidase activity)” value in assay [1] (25 μM PD098059 versus vehicle, 0.1-100 U/ml LIF) is on record as “increased the level of β-galactosidase activity at all concentrations of LIF”. The “effect on ES cell self-renewal compared with vehicle alone” value in assay [1] (3-25 μM PD098059, sub-saturating LIF (5 U/ml)) is “did not inhibit self-renewal”. In addition, in assay [1] (absence of LIF), the “effect on differentiation of ES cells in the absence of LIF” value is given as “did not block the differentiation of ES cells”. Moreover, the “concentration at which maximum level of self-renewal is achieved” value in assay [1] (sub-saturating LIF (5 U/ml), dose dependent increase) was in the range of 12 to 25 µM. Further, the “representation of undifferentiated β-galactosidase positive cells” value in assay [2] (0, 25, 50, 75 or 100 μm, aggregates 6 days, no inhibitor as control) is “increased in a dose dependent fashion”. The molecule further gave a concentration at which the great majority of cells were undifferentiated in assay [2] (aggregates maintained 6 days) of 75 to 100 µM. Further, the “contribution of treated ES cells to chimaeras (β-galactosidase staining of mid-gestation embryos)” value in assay [3] is listed as “contributed to chimaeras”. Further, in assay [4], the “concentration at which G-CSF dependent phosphorylation of ERK1 and ERK2 was effectively blocked” value is 25 µM; the “concentration range over which G-CSF dependent phosphorylation of ERK1 and ERK2 was progressively reduced” value was in the range of 3 to 12 µM.

B1: G-CSF: cytokine ligand used to stimulate chimaeric G-CSFR/gp130 receptors in ES cell transfectants (protein, UniProt P09919 31-207, looked up)
Granulocyte …: TPLGPASSLPQSFLLKCLEQVRKIQGDGAALQEKLVSECATYKLCHPEELVLLGHSLGIPWAPLSSCPSQALQLAGCLSQLHSGLFLYQGLLQALEGISPELGPTLDTLQLDVADFATTIWQQMEELGMAPALQPTQGAMPAFASAFQRRAGGVLVASHLQSFLEVSYRVLRHLAQP
For B1, the “G-CSF concentration at which self-renewal reaches a plateau” value in assay [5] lay in the range of 3 to 30 ng/mL. In assay [6], the “G-CSF concentration at which maximal self-renewal response was achieved” value came out at 30 pg/mL.
